Measurements from patent US20070218504A1, “HUMAN LEPTIN-DERIVED POLYPEPTIDES AND USES THEREOF” (UNIVERSITY OF PITTSBURGH, priority 2006, published 2007).

How the values were obtained:
[1] = biological target: T1, long-form human leptin receptor, OB-Rb (Homo sapiens, UniProt P48357); assay: 125I-labeled human leptin binding to OB-Rb on stably transfected HEK293 cells, with or without pre-incubation with human CRP
T1 construct: expressed in transfected cells
T1 sequence (P48357 22-1165): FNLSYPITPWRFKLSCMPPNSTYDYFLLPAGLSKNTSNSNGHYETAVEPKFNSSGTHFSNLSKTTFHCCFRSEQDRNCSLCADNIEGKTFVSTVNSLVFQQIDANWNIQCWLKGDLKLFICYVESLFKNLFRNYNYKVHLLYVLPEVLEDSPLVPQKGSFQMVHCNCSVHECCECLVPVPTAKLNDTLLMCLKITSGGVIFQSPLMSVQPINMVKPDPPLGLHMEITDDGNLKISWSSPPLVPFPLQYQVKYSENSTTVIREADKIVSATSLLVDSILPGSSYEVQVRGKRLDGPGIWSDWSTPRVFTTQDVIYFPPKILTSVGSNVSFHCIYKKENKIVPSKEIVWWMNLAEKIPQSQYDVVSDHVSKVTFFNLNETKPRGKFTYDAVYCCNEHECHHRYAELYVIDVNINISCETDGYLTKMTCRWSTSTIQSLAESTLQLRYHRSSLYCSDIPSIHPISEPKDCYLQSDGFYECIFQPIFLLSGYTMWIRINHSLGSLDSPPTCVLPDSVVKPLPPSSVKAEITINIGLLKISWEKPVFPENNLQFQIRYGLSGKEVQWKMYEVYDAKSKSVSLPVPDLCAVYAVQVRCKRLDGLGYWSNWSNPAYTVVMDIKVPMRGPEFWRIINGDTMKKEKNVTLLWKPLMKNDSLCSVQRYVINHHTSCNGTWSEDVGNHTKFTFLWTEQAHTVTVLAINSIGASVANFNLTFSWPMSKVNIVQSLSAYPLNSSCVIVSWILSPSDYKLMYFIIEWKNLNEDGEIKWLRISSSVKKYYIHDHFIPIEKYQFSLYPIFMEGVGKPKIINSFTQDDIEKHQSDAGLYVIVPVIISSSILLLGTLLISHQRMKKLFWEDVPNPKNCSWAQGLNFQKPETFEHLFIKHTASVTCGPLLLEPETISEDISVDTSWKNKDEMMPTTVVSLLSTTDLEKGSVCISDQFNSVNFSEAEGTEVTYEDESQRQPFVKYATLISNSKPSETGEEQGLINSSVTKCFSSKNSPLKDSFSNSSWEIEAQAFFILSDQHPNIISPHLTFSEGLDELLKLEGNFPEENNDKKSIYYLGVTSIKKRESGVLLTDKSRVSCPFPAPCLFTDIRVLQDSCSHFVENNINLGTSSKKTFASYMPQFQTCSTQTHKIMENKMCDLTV
Procedure: FIG. 4A. Interference effect of human CRP on human leptin binding to its receptor. HEK293 cells stably transfected with the long-form human leptin receptor, OB-Rb (14), are used to examine whether human CRP interferes with the ability of human leptin to bind to its receptor. […] The dashed line at the bottom right of the graph indicates ^125I-leptin bound when two thousand fold excess of non-labeled leptin is added.
To examine if CRP binding interferes with the stability of human leptin to bind to its receptors, a HEK293 cell line stably transfected with the long-form human leptin receptor, OB—Rb, was used (17). Human leptin was iodinated with Na^125I using the lodogen method. Briefly, 15 μg of recombinant human leptin in 100 mM Phosphate buffer pH 7.5 were incubated with 1 mCi of carrier-free Na^125I (2200 Ci/mmol) in a glass tube containing 50 μg Iodogen. After 10-minute incubation at room temperature, the reaction was stopped with 100 μl 0.1% trifluoroacetic acid (TFA). The reaction mixture was immediately purified by reverse-phase HPLC. The separation employed a 5-minute isocratic step at 20% eluant B in A, followed by two consecutive 30 min linear gradients from 20 to 50%, then from 50 to 60% eluant B in A (where eluant A is water containing 0.1% TFA and eluant B is acetonitrile containing 0.1% TFA) at a flow rate of 1.5 ml/min. […]

CRP-transgenic mice = assay: Human leptin infusion in mice transgenically expressing human CRP and wild-type littermates; format: in vivo, mouse
Procedure: To complement the in vivo studies further, the satiety and weight-reducing functions of human leptin were evaluated in mice producing transgenically expressed human CRP (24). The average baseline serum concentration of human CRP in these mice was approximately 15 μg/ml. […] To evaluate the effects of human leptin in the transgenic mice, a dose of 0.6 mg/kg/day, which has been known to maximally but only temporarily affected energy balance in wild-type mice (25), was infused. […] At the end of infusion, the total human leptin concentration in the sera of transgenic mice averaged at 7.6 ng/ml, which was higher than that in the wild-type littermates at 3.2 ng/ml.

[2] = test system: tyrosine phosphorylation of STAT3 in the hypothalamic tissues; assay: Tyrosine phosphorylation of STAT3 in hypothalamic tissues after i.c.v. injection (Western blot); format: in vivo, mouse
Procedure: The hypothalamic tissues were surgically dissected right after sacrificing the mice. A portion of each tissue was extracted for protein in a protein lysis buffer. The activation of STAT3 was evaluated using Western blot assays with an antibody against phospho-tyrosine-STAT3 as described above (Cell Signaling, Beverly, Mass.). The membrane was striped and applied with an antibody against STAT3 to evaluate the overall level of STAT3 (Cell Signaling, Beverly, Mass.).
To determine whether the interaction between human CRP and leptin dampens the cellular actions of leptin, an assessment was made of the ability of leptin to stimulate tyrosine phosphorylation of STAT3 in the hypothalamic tissues. As described above, human CRP at 2.3 μg/injection or PBS was pre-injected via i.c.v., followed by an injection of human leptin or mouse leptin, each at 100 ng/injection. Subsequently, the hypothalamic tissues were dissected and immediately placed into liquid nitrogen for a rapid freezing. A portion of the frozen tissue was homogenized in a protein lysis buffer for the extraction of proteins. The protein extract was then subjected to Western blot assay as described above.

| IC50 of human CRP for reducing 125I-labeled human leptin binding to its receptor ([1]; in the presence of about 2 ng/ml human leptin, 1 hour pre-incubation) | Substance | effect of human CRP alone on food intake and body weight (CRP-transgenic mice; CRP transgenic mice, no human leptin) | average baseline serum concentration of human CRP (CRP-transgenic mice; mice transgenically expressing human CRP) | effect of CRP pre-injection on human leptin-induced STAT3 activation ([2]; human CRP 2.3 μg/injection) | effect of CRP pre-injection on mouse leptin-induced STAT3 activation ([2]; human CRP 2.3 μg/injection) | Kd ([1]; HEK293 cells stably transfected with OB-Rb) [nM] | physiological effects of human leptin in CRP-transgenic mice (CRP-transgenic mice; 0.6 mg/kg/day infusion, CRP-transgenic mice) | effect of human leptin on food intake, body weight, epidydimal fat-pad weight in wild-type littermates (CRP-transgenic mice; 0.6 mg/kg/day infusion, wild-type littermates) | total human leptin concentration in sera, transgenic mice (CRP-transgenic mice; end of infusion, CRP transgenic mice) [ng/mL] | total human leptin concentration in sera, wild-type littermates (CRP-transgenic mice; end of infusion, wild-type littermates) [ng/mL] | level of phosph-STAT3 in hypothalamic tissues after leptin ([2]; human leptin 100 ng/injection following PBS) |
| --- | --- | --- | --- | --- | --- | --- | --- | --- | --- | --- | --- |
| approximately 80 ng/ml | human CRP: human C-reactive protein, purified preparation from a commercial source | did not meaningfully affect | approximately 15 μg/ml | drastically diminished | did not block |  |  |  |  |  |  |
|  | human leptin: human recombinant leptin |  |  |  |  | 1 | completely blunted | expected reductions in food intake, body weight, and epidydimal fat-pad weight | 7.6 | 3.2 | sharp increase |
